According to PMC6965176, “Targeting Forward and Reverse EphB4/EFNB2 Signaling by a Peptide with Dual Functions” (Scientific Reports, 2020):
Non-standard residues stand in square brackets, D forms with d. No end group written: not given here.

Tests used:
[1] = biological target: T1, EphB4 (Homo sapiens, UniProt P54760); assay: SPR (BIACore) binding of peptides to immobilized EphB4; details: rhEphB4-coated chips, 0.16-20 nM equivalent BIDEN-AP, duplicate, visual inspection; poor fitting to 1:1 or 1:2 models (Fig. 3B)
T1 construct: purchased R&D Systems
T1 sequence (P54760 16-987): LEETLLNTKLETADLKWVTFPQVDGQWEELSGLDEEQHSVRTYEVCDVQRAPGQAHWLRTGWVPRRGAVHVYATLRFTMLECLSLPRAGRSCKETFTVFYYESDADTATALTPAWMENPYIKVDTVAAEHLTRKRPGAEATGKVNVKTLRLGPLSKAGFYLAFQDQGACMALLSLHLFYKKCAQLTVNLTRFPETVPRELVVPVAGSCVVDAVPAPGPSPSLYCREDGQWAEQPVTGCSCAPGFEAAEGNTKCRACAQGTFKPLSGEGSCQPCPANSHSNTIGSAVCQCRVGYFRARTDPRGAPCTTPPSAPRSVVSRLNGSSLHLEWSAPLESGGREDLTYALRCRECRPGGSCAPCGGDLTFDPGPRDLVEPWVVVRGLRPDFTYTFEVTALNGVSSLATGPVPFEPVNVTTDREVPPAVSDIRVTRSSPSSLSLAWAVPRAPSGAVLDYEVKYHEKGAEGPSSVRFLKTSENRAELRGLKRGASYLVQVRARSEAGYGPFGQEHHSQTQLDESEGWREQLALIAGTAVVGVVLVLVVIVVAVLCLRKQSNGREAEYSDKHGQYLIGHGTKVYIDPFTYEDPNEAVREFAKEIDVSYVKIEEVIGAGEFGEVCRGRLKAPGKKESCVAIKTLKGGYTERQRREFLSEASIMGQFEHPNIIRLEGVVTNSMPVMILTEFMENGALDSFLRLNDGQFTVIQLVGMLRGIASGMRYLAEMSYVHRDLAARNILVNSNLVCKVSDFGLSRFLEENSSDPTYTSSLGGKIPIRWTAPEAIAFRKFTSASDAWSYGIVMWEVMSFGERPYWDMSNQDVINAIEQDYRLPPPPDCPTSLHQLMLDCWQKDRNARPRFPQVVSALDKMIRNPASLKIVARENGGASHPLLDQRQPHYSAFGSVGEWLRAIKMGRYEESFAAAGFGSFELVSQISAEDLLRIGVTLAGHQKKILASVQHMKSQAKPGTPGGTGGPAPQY
Description: Surface plasmon resonance (SPR) binding and competition assays.
Immunoblotting, immunoprecipitation, and co-immunoprecipitation.

[2] = tested on: RF24_Bev cells; assay: Cell death in bevacizumab-resistant RF24 cells (SYTOX-green flow cytometry); format: cell-based; details: VEGF + Bev, SYTOX-negative live cells by flow cytometry (Fig. 4C,D)
Protocol: Figure 4 BIDEN-AP–based agents inhibit tube formation and sensitize resistant endothelial cells to anti-VEGF antibody. (A,B) Tube formation by RF24 cells treated with EFNB2-Fc (2 nM) or BIDEN-AP (15 µM) compared to untreated controls (CTL). Representative data from three independent experiments are presented. (A) Representative microphotographs of tubes formed by RF24 cells are shown (n = 3). Images were taken at × 100 magnification. (B) Quantification of the number of nodes per field in three technical replicates. […] (C) Representative flow cytometry plots from three independent experiments of RF24_Bev cells are shown here. SYTOX-negative staining represents the live cell population.
Given the important role of endothelium in adaptive changes with antiangiogenic therapy, we further tested the effects of BIDEN-AP in overcoming resistance to anti-VEGF therapy in RF24 endothelial cells. To do this, we first established a bevacizumab (Bev)-resistant RF24 cell line (RF24_Bev) selected though continuous Bev treatment at low dose ([…]) for 2 weeks. The RF24_Bev cells were maintained at a Bev concentration of […]. Using flow cytometry with SYTOX-green staining, we quantified the live (SYTOX-negative) vs. dead (SYTOX-positive) populations after treatment with BIDEN-AP or CCPM-BIDEN-AP.

[3] = tested on: orthotopic A2780cp20-Luc ovarian tumors; assay: Orthotopic A2780cp20-Luc ovarian cancer model
Protocol: (A) Schema for in vivo orthotopic A2789cp20-Luc model and treatment. Female nude mice were intraperitoneally inoculated with A2789cp20-Luc tumor cells. Beginning on day 7 after inoculation, each mouse received 10 intraperitoneal injections of BIDEN-AP or CCPM-BIDEN-AP (bold arrows) at a dose 13 mg/kg/injection every other day for a total of 10 doses. Tumor growth was monitored by bioluminescence imaging (IVIS). (B,C) Representative bioluminescence images on day 28 after tumor cell inoculation (B) and corresponding quantification of signal intensity (C) of mice bearing orthotopic A2780cp20-Luc tumors (n = 4). (D,E) Tumor weight (D) and number of tumor nodules (E) per treatment group (n = 8). (F) Images of tumor nodules from each treatment group. Data are expressed as mean ± SD. *p < 0.05, **p < 0.01, ****p < 0.0001 by Student t-test. CTL, untreated controls.
Female athymic nude mice (NCr-nu) were obtained from Harlan Laboratories (Indianapolis, IN) at age 4 to 6 weeks and kept under sterile conditions. For all therapeutic experiments, groups of the mice were inoculated intraperitoneally with A2780cp20-Luc cells (1×10^6 cells/mouse). The mice were treated with BIDEN-AP or CCPM-BIDEN-AP at a dose of 13 mg equivalent drug/kg per injection for a total of 10 doses every other day starting on day 7 after tumor cell inoculation. Untreated mice were used as a control. On day 31, all mice were euthanized and necropsied, and their tumors were harvested. Tumor weight and number and location of tumor nodules were recorded. Tumor tissue was fixed in formalin for paraffin embedding, frozen in optimal cutting temperature medium for frozen slide preparation, or snap-frozen for lysate preparation.
On day 7, day 14, day 21, and day 28 after tumor inoculation, mice received a tail vein injection of D-luciferin (4 mg/kg) and their tumor burden was assessed by luciferase activity using the Xenogen IVIS-200 imaging system (Perkin Elmer, Shelton, CT). The bioluminescence imaging signal generated in mice was quantified using Living Image V.2.11 software and IGOR image analysis software (V.4.02 A; WaveMetrics, Portland, OR). The region of interest was manually selected, and the signal intensity was expressed in terms of the number of photons/s/cm^2.
incubated overnight at 4°C. After washing, the slides were incubated with Alexa488-conjugated goat anti-rabbit secondary antibody for 60 min. Slides were subjected to recombinant terminal
deoxynucleotidyl transferase (rTdT)–mediated dUTP nick-end labeling (TUNEL) by using the
DeadEnd Fluorometric TUNEL System assay kit (Promega) after CD31 staining by immersing
slides in 4% formaldehyde in PBS for 15 min. A 20 µg/mL proteinase K solution (Promega) was
added to each slide (100 µL per slide), and the slides were incubated at room temperature for 8-
10 min. Slides were washed twice with PBS, 100 µL equilibration buffer (Promega) was added to
each, and the slides were again incubated for 5-10 min. The slides were then labeled by adding
50 µL of fluorescein-12-dUTP as a substrate, and the rTdT was added. Each slide was covered
with a plastic coverslip to ensure even distribution of the labeling solution and incubated for 60
min at 37°C in a humidified chamber. The reaction was stopped by immersing slides in 2x SSC
solution (87.7g NaCl, 44.1g sodium citrate, pH 7.0, in 500 mL) for 15 min. After washing with PBS,

CCPM-BIDEN-AP: nanoconjugate of BIDEN-AP with core-crosslinked polymeric micelles (CCPM) (TN[dY]LFSPNGPIARAW; also: conjugated to core-crosslinked polymeric micelles (CCPM))
binding avidity to immobilized EphB4 (SPR sensorgrams) [1]: stronger binding avidity to EphB4 than the unconjugated BIDEN-AP peptide | re-sensitization of bevacizumab-resistant endothelial cells to Bev [2]: re-sensitized these cells to Bev treatment | bioluminescence signal intensity of tumors ([3]; day 28 after inoculation, 13 mg/kg/injection i.p. every other day, 10 doses from day 7, n = 4 (Fig. 5A-C)): significantly reduced the bioluminescence signal intensity | metastatic nodules, comparison of the two agents ([3]; day 31, 13 mg/kg/injection i.p., 10 doses (Fig. 5E,F)): reduced metastatic nodules to a greater extent than BIDEN-AP | tumor growth in the peritoneum (tumor weight and number of metastatic nodules) versus controls ([3]; day 31 after inoculation, 13 mg/kg/injection i.p., 10 doses, n = 8 (Fig. 5D)): significantly reduced tumor growth in the peritoneum | apoptotic cell death in CD31+ endothelial vasculature within tumor stroma ([3]; excised A2780cp20 tumors, CD31/TUNEL co-staining, versus untreated control (Fig. 6A-C)): induced apoptotic cell death | angiogenesis in tumors (microvessel density) ([3]; excised A2780cp20 tumors, CD31 staining (Fig. 6A-C)): suppressed angiogenesis in tumors | tumor cell proliferation (Ki67-positive cells) ([3]; excised A2780cp20 tumors, Ki67 IHC (Fig. 6D,E)): significantly reduced tumor cell proliferation | EphB4 and Crk1 phosphorylation in vivo in tumors ([3]; orthotopic A2780cp20 tumors of treated mice, IP/immunoblot (Fig. S7B)): induce EphB4 and Crk1 phosphorylation
